Values quoted from earlier work as cited in patent US6045800A, “Composition for preventing or treating periodontal diseases comprising extract from Achyranthis radix or Ulmus cortex” (LG Chemical Ltd., priority 1997, dated 2000).

Tested on: periodontal diseases

In the case of `CN(C)C1C(=O)C(C(N)=O)=C(O)C2(O)C(=O)C3=C(O)c4c(O)cccc4C(C)(O)C3CC12` (stereo not drawn) [tetracycline], the “clinical effect on the symptom of the disease” value (1000 mg/day for 5 to 7 days) is given as “relieved to a clinically normal state”, the “clinical effect of long term administration” value (daily dose of 1000 mg for 2 weeks, then 250 mg once daily for 48 weeks) is given as “gingivitis has clinically decreased” and the side effects (use of the antibiotic) is given as “vomiting, a complaint for the ache of gastrointestinal tracts, diarrhea, dental coloring”.
